# Experimental data: ChEMBL document CHEMBL5321219, “Selective degradation of cellular BRD3 and BRD4-L promoted by PROTAC molecules in six cancer cell lines” (Eur J Med Chem, 2023)
# The source made the active and inactive calls. The rule behind the calls is not given here.
# Assays:
# [1] = target: T1, Protein cereblon/Bromodomain-containing protein 3 (Homo sapiens) (UniProt Q15059+Q96SW2); assay: PROTAC activity at CRBN/BRD3 in human MCF7 cells assessed as induction of protein degradation at 30 nM by Western blot analysis; assay type: cell-based; conditions: time 1-3 hrs, TDE = time-dependent effect
# [2] = target: T2, Protein cereblon/Bromodomain-containing protein 2 (Homo sapiens) (UniProt P25440+Q96SW2); assay: PROTAC activity at CRBN/BRD2 in human A549 cells assessed as induction of protein degradation at 3 to 1000 nM measured after 24 hrs by Western blot analysis; assay type: cell-based; conditions: dose 3-1000 nM
# [3] = tested on: MM1.S; assay: Induction of cell cycle arrest in human MM1.S cells assessed as accumulation of cells at G1 phase at 10 nM incubated for 24 hrs by flow cytometry analysis (reference value: 56.32%); assay type: functional
# [4] = target: T2, Protein cereblon/Bromodomain-containing protein 2 (Homo sapiens); assay: PROTAC activity at CRBN/BRD2 in human MCF7 cells assessed as induction of protein degradation at 30 nM measured around 24 hrs by Western blot analysis; assay type: cell-based
# [5] = target: T2, Protein cereblon/Bromodomain-containing protein 2 (Homo sapiens); assay: PROTAC activity at CRBN/BRD2 in human MM1.S cells assessed as induction of protein degradation at 30 nM measured around 24 hrs by Western blot analysis; assay type: cell-based
# [6] = target: T3, Protein cereblon/Bromodomain-containing protein 4 (Homo sapiens) (UniProt O60885+Q96SW2); assay: PROTAC activity at CRBN/BRD4-L in human MM1.S cells assessed as induction of protein degradation at 30 nM pretreated with (6R)-N-(4-chlorophenyl)-1-methyl-8-(1-methyl-1H-pyrazol-4-yl)-5,6-dihydro-4H-benzo[f][1,2,4]triazolo[4,3-a]azepin-6-amine for 2 hrs followed by compound addition and measured after 4 hrs by Western blot analysis; assay type: cell-based
# [7] = tested on: MM1.S; assay: Downregulation of c-Myc protein expression in human MM1.S cells at 0.1 to 30 nM measured after 24 hrs by Western blot analysis; assay type: functional, cell-based; conditions: dose 0.1-30 nM
# [8] = target: T3, Protein cereblon/Bromodomain-containing protein 4 (Homo sapiens); assay: PROTAC activity at CRBN/BRD4-S in human HeLa cells assessed as induction of protein degradation at 1 to 300 nM measured after 24 hrs by Western blot analysis; assay type: cell-based; conditions: dose 1-300 nM
# [9] = tested on: HepG2; assay: Antiproliferative activity against human HepG2 cells assessed as cell growth inhibition measured after 4 days by CCK-8 assay; assay type: functional, cell-based; conditions: HepG2, 96 h
# [10] = target: T3, Protein cereblon/Bromodomain-containing protein 4 (Homo sapiens); assay: PROTAC activity at CRBN/BRD4-L in human U-937 cells assessed as induction of protein degradation by Western blot analysis; assay type: cell-based
# [11] = target: T3, Protein cereblon/Bromodomain-containing protein 4 (Homo sapiens); assay: PROTAC activity at CRBN/BRD4-L in human HGC-27 cells assessed as induction of protein degradation at 30 nM measured after 8 to 24 hrs by Western blot analysis; assay type: cell-based; conditions: time 8-24 hrs
# [12] = target: T3, Protein cereblon/Bromodomain-containing protein 4 (Homo sapiens); assay: PROTAC activity at CRBN/BRD4-S in human A549 cells assessed as induction of protein degradation at 3 to 1000 nM measured after 24 hrs by Western blot analysis; assay type: cell-based; conditions: dose 3-1000 nM
# [13] = target: T3, Protein cereblon/Bromodomain-containing protein 4 (Homo sapiens); assay: PROTAC activity at CRBN/BRD4-L in human MM1.S cells assessed as induction of protein degradation at 30 nM pretreated with lenalidomide for 2 hrs followed by compound addition and measured after 4 hrs by Western blot analysis; assay type: cell-based
# [14] = tested on: MM1.S; assay: Induction of cell cycle arrest in human MM1.S cells assessed as accumulation of cells at S phase at 1 nM incubated for 24 hrs by flow cytometry analysis (reference value: 22.37%); assay type: functional
# [15] = tested on: HeLa; assay: Antiproliferative activity against human HeLa cells assessed as cell growth inhibition measured after 4 days by CCK-8 assay; assay type: functional, cell-based; conditions: 96 h
# [16] = target: T3, Protein cereblon/Bromodomain-containing protein 4 (Homo sapiens); assay: PROTAC activity at CRBN/BRD4-L in human MCF7 cells assessed as induction of protein degradation at 30 nM by Western blot analysis; assay type: cell-based; conditions: time 1-3 hrs, TDE = time-dependent effect
# [17] = target: T3, Protein cereblon/Bromodomain-containing protein 4 (Homo sapiens); assay: PROTAC activity at CRBN/BRD4-S in human HepG2 cells assessed as induction of protein degradation at 10 to 3000 nM measured after 24 hrs by Western blot analysis; assay type: cell-based; conditions: dose 10-3000 nM
# [18] = tested on: MM1.S; assay: Downregulation of BRD2 expression in human MM1.S cells by proteomic analysis; assay type: functional, cell-based
# [19] = tested on: HGC-27; assay: Antiproliferative activity against human HGC-27 cells assessed as cell growth inhibition measured after 4 days by CCK-8 assay; assay type: functional, cell-based; conditions: HGC-27, 96 h
# [20] = target: T3, Protein cereblon/Bromodomain-containing protein 4 (Homo sapiens); assay: PROTAC activity at CRBN/BRD4-S in human MM1.S cells assessed as induction of protein degradation at 0.1 to 30 nM measured after 24 hrs by Western blot analysis; assay type: cell-based; conditions: dose 0.1-30 nM
# [21] = tested on: MM1.S; assay: Induction of cell cycle arrest in human MM1.S cells assessed as accumulation of cells at G1 phase at 30 nM incubated for 24 hrs by flow cytometry analysis (reference value: 56.32%); assay type: functional
# [22] = target: T1, Protein cereblon/Bromodomain-containing protein 3 (Homo sapiens); assay: PROTAC activity at CRBN/BRD3 in human MM1.S cells assessed as induction of protein degradation at 30 nM pretreated with 0.2 to 10 uM MG132 for 2 hrs followed by compound addition and measured after 4 hrs by Western blot analysis; assay type: cell-based
# [23] = target: T3, Protein cereblon/Bromodomain-containing protein 4 (Homo sapiens); assay: PROTAC activity at CRBN/BRD4-L in human HeLa cells assessed as induction of protein degradation measured after 24 hrs by Western blot analysis; assay type: cell-based; conditions: dose 1-300 nM
# [24] = tested on: MM1.S; assay: Induction of cell cycle arrest in human MM1.S cells assessed as accumulation of cells at G2 phase at 3 nM incubated for 24 hrs by flow cytometry analysis (reference value: 14.68%); assay type: functional
# [25] = target: T1, Protein cereblon/Bromodomain-containing protein 3 (Homo sapiens); assay: PROTAC activity at CRBN/BRD3 in human HGC-27 cells assessed as induction of protein degradation at 30 nM measured after 8 to 24 hrs by Western blot analysis; assay type: cell-based; conditions: time 8-24 hrs
# [26] = target: T1, Protein cereblon/Bromodomain-containing protein 3 (Homo sapiens); assay: PROTAC activity at CRBN/BRD3 in human MM1.S cells assessed as induction of protein degradation at 30 nM pretreated with (6R)-N-(4-chlorophenyl)-1-methyl-8-(1-methyl-1H-pyrazol-4-yl)-5,6-dihydro-4H-benzo[f][1,2,4]triazolo[4,3-a]azepin-6-amine for 2 hrs followed by compound addition and measured after 4 hrs by Western blot analysis; assay type: cell-based
# [27] = tested on: MM1.S; assay: Induction of cell cycle arrest in human MM1.S cells assessed as accumulation of cells at S phase at 10 nM incubated for 24 hrs by flow cytometry analysis (reference value: 22.37%); assay type: functional
# [28] = target: T2, Protein cereblon/Bromodomain-containing protein 2 (Homo sapiens); assay: PROTAC activity at CRBN/BRD2 in human HGC-27 cells assessed as induction of protein degradation at 0.1 to 30 nM measured after 24 hrs by Western blot analysis; assay type: cell-based; conditions: dose 0.1-30 nM
# [29] = tested on: MM1.S; assay: Induction of cell cycle arrest in human MM1.S cells assessed as accumulation of cells at S phase at 30 nM incubated for 24 hrs by flow cytometry analysis (reference value: 22.37%); assay type: functional
# [30] = target: T1, Protein cereblon/Bromodomain-containing protein 3 (Homo sapiens); assay: PROTAC activity at CRBN/BRD3 in human MM1.S cells assessed as induction of protein degradation at 30 nM measured after 3 to 6 hrs by Western blot analysis; assay type: cell-based; conditions: time 3-6 hrs
# [31] = target: T3, Protein cereblon/Bromodomain-containing protein 4 (Homo sapiens); assay: PROTAC activity at CRBN/BRD4-L in human MM1.S cells assessed as induction of protein degradation at 2 nM measured after 24 hrs by Western blot analysis; assay type: cell-based
# [32] = tested on: MM1.S; assay: Induction of cell cycle arrest in human MM1.S cells assessed as accumulation of cells at G2 phase at 1 nM incubated for 24 hrs by flow cytometry analysis (reference value: 14.68%); assay type: functional
# T3 sequence (Q96SW2 whole entry, looked up, other chains not shown): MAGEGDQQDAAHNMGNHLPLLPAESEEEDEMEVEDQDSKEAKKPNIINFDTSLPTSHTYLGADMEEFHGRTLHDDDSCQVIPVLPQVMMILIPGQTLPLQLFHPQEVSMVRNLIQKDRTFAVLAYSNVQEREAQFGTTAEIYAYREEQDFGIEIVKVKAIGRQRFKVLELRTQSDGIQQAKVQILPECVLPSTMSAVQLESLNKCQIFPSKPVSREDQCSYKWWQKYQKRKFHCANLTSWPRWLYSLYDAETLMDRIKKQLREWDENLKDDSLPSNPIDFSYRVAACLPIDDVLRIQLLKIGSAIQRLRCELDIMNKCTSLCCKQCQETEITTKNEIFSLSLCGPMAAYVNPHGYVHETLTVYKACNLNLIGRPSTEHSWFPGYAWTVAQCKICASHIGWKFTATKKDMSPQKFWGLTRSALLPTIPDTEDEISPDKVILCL
# T2 sequence (P25440 whole entry, looked up): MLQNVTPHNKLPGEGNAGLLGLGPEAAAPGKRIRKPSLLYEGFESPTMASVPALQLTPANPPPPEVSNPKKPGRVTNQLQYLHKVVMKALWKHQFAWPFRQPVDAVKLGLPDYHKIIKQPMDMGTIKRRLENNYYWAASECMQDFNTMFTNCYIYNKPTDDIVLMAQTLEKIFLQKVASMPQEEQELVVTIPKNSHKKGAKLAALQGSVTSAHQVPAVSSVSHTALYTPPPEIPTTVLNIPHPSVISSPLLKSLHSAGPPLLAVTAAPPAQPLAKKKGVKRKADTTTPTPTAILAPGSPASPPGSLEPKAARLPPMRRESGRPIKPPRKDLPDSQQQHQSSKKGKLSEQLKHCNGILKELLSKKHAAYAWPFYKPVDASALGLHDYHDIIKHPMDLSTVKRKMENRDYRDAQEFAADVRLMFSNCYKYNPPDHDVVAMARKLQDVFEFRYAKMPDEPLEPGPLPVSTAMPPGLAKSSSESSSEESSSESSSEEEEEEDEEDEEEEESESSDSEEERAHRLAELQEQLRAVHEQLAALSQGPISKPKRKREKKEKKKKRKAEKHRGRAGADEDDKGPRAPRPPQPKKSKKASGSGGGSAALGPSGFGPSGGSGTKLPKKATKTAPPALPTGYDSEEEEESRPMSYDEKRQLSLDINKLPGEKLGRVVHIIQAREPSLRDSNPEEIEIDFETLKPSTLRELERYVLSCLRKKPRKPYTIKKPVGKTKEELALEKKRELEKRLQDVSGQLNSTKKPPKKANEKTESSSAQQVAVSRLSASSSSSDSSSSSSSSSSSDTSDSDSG
# T2 sequence (Q96SW2 whole entry, looked up): as the sequence (Q96SW2 whole entry, looked up, other chains not shown) above
# T1 sequence (Q15059 2-726 limits assumed): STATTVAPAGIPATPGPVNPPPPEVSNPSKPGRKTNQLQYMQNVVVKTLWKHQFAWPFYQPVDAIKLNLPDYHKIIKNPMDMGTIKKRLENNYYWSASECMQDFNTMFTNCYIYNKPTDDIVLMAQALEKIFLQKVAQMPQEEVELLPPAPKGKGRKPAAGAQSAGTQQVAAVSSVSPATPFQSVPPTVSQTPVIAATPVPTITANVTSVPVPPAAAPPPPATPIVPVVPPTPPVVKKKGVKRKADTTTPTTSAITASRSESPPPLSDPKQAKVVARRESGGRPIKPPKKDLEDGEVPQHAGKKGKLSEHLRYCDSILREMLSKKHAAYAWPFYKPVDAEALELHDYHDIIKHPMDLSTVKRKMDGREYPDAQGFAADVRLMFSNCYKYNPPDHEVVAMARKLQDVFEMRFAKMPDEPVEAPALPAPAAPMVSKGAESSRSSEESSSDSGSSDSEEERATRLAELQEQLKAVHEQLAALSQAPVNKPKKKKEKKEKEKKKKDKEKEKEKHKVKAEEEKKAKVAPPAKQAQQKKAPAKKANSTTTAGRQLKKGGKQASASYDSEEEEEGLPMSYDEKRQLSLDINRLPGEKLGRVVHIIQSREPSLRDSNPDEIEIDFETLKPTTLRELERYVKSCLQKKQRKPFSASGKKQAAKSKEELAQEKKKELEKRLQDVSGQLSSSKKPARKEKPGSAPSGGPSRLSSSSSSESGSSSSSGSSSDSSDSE
# T1 sequence (Q96SW2 whole entry partner): as the sequence (Q96SW2 whole entry, looked up, other chains not shown) above
smiles,measurement,setting,value
Cc1nnc2n1-c1ccc(-c3ccc(CNCCCCc4cccc5c4CN(C4CCC(=O)NC4=O)C5=O)cc3)cc1C(Nc1ccc(Cl)cc1)CC2 (configuration not stated),Activity,[1],Tde
same,Activity,[2],inactive
same,Activity,[3],63.9%
same,Activity,[4],Active
same,Activity,[5],Active
same,Activity,[6],inactive
same,Activity,[7],Active
same,Activity,[8],inactive
same,IC50,[9],17.2 µM
same,Activity,[10],inactive
same,Activity,[11],Active
same,Activity,[12],inactive
same,Activity,[13],inactive
same,Activity,[14],21.35%
same,IC50,[15],6.96 µM
same,Activity,[16],Tde
same,Activity,[17],inactive
same,Activity,[18],inactive
same,IC50,[19],2.35 µM
same,Activity,[20],inactive
same,Activity,[21],65.17%
same,Activity,[22],inactive
same,Activity,[23],Dose-Dependent Effect
same,Activity,[24],20.58%
same,Activity,[25],Active
same,Activity,[26],inactive
same,Activity,[27],14.97%
same,Activity,[28],inactive
same,Activity,[29],15.21%
same,Activity,[30],Active
same,Activity,[31],Active
same,Activity,[32],15.24%
